Reference: ChEMBL document CHEMBL4680101, “Discovery and Optimization of Allosteric Inhibitors of Mutant Isocitrate Dehydrogenase 1 (R132H IDH1) Displaying Activity in Human Acute Myeloid Leukemia Cells” (J Med Chem, 2016)

The compounds below were run against Isocitrate dehydrogenase [NADP] cytoplasmic (Homo sapiens, UniProt O75874, R132H) (assay: Inhibition of IDH1 R132H mutant (unknown origin) using alpha-ketoglutarate and NADPH incubated for 60 mins by fluorescence based assay).
Isocitrate dehydrogenase [NADP] cytoplasmic, sequence (O75874 2-414 R132H limits assumed): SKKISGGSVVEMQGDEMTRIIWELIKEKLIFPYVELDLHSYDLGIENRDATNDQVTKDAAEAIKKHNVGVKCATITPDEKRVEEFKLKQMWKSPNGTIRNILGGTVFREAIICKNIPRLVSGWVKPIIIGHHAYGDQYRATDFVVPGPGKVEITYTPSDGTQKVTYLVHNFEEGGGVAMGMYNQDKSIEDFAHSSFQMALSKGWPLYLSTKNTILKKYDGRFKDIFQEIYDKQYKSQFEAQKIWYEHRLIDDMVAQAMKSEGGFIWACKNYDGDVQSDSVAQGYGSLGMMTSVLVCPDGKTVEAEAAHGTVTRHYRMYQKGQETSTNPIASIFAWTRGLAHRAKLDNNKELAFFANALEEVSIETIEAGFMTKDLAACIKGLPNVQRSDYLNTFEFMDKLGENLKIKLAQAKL
In the case of `CC(C)CCOc1nc(N2C[C@@H]3[C@H](C2)[C@H]3C(=O)O)ccc1C(=O)NCc1cccc(O)c1`, the IC50 is reported as 6.3 µM.
`O=C(O)C[C@@H]1CCCN(c2ccc(C(=O)NC3CCCCC3)c(NCc3ccccc3)n2)C1` was tested, and the IC50 was > 50 µM.
In the case of `Cc1ccccc1CSc1nc(N2CCC[C@@H](CC(=O)O)C2)ccc1C(=O)NC1CCCCC1`, the IC50 is reported as > 50 µM.
In the case of `CC(C)CCOc1nc(N2C[C@@H]3[C@H](C2)[C@H]3C(=O)O)ccc1C(=O)NC[C@@H](O)c1ccccc1`, the IC50 is reported as 3.1 µM.
For `CC(C)CCOc1nc(N2C[C@@H]3[C@H](C2)[C@H]3C(=O)O)ccc1NS(=O)(=O)C1CCCCC1`, the IC50 was 8.6 µM.
With `CC1(C)CC(Oc2nc(N3CCC[C@@H](CC(=O)O)C3)ccc2C(=O)NC2CCCCC2)C1` the IC50 was 7.2 µM.
`O=C(O)C[C@@H]1CCCN(c2ccc(C(=O)NC3CCCCC3)c(OC3CCC3)n2)C1` was tested, and the IC50 was > 50 µM.
Work on `CC(C)CCOc1nc(N2C[C@@H]3[C@H](C2)[C@H]3C(=O)O)ccc1C(=O)NC1CCCCC1` yielded an IC50 of 7.9 µM.
In the case of `CC(C)CCOc1nc(N2C[C@@H]3[C@H](C2)[C@H]3C(=O)O)ccc1C(=O)NCc1ccc(Cl)cc1`, the IC50 is reported as 17 µM.
`CC(C)=CCOc1nc(N2CCC[C@@H](CC(=O)O)C2)ccc1C(=O)NC1CCCCC1` gave an IC50 of 14 µM.
`COc1cccc(COc2nc(N3CCC[C@@H](CC(=O)O)C3)ccc2C(=O)NC2CCCCC2)c1` showed an IC50 of 12 µM.
With `Cc1cc(Cl)ccc1COc1nc(N2CCC[C@@H](CC(=O)O)C2)ccc1C(=O)NC1CCCCC1` the IC50 was 38 µM.
For `COc1ccccc1COc1nc(N2CCC[C@@H](CC(=O)O)C2)ccc1C(=O)NC1CCCCC1`, the IC50 was 13 µM.
`O=C(O)C[C@@H]1CCCN(c2ccc(C(=O)NC3C4CC5CC3CC(O)(C5)C4)c(OCc3ccccc3)n2)C1` (stereo partly specified) showed an IC50 of 2.3 µM.
With `O=C(O)C[C@@H]1CCCN(c2ccc(C(=O)NC3CCCCC3)c(OCC3CCCCC3)n2)C1` the IC50 was 9.7 µM.
`CC(C)CCOc1nc(N2C[C@@H]3[C@H](C2)[C@H]3C(=O)O)ccc1C(=O)NC1CCC(O)CC1` (stereo partly specified) was tested, and the IC50 was 8.2 µM.
In the case of `O=C(O)C[C@@H]1CCCN(c2ccc(C(=O)NC3CCCCC3)c(NC3CCCC3)n2)C1`, the IC50 is reported as > 50 µM.
`CC(C)CCOc1nc(N2C[C@@H]3[C@H](C2)[C@H]3C(=O)O)ccc1C(=O)NCCc1ccccc1` was tested, and the IC50 was 3.9 µM.
`O=C(O)C[C@@H]1CCCN(c2ccc(C(=O)NC3CCCCC3)c(OCC3CCC3)n2)C1` gave an IC50 of 20 µM.
In the case of `CC(C)CCOc1nc(N2C[C@@H]3[C@H](C2)[C@H]3C(=O)O)ccc1C(=O)Nc1cccc(C(N)=O)c1`, the IC50 is reported as 6 µM.
`Cc1ccccc1COc1nc(N2CCC[C@@H](CC(=O)O)C2)ccc1C(=O)NC1C2CC3CC1CC(O)(C3)C2` (stereo partly specified) gave an IC50 of 0.69 µM.
In the case of `Cc1ccc(COc2nc(N3CCC[C@@H](CC(=O)O)C3)ccc2C(=O)NC2CCCCC2)cc1`, the IC50 is reported as > 50 µM.
`CC(C)CCOc1nc(N2C[C@@H]3[C@H](C2)[C@H]3C(=O)O)ccc1C(=O)Nc1cccc(B(O)O)c1` gave an IC50 of 4.6 µM.
`CC(C)CCOc1nc(N2C[C@@H]3[C@H](C2)[C@H]3C(=O)O)ccc1NC(=O)NC1CCCCC1` was tested, and the IC50 was > 50 µM.
With `O=C(O)C[C@@H]1CCCN(c2ccc(C(=O)NC3CCCCC3)c(OCc3ccccc3)n2)C1` the IC50 was 8.6 µM.
`CC(C)CCOc1nc(N2C[C@@H]3[C@H](C2)[C@H]3C(=O)O)ccc1C(=O)NCc1ccncc1` showed an IC50 of 6.2 µM.
For `CN(C)CCOc1nc(N2CCC[C@@H](CC(=O)O)C2)ccc1C(=O)NC1CCCCC1`, the IC50 was > 50 µM.
With `O=C(O)C[C@@H]1CCCN(c2ccc(C(=O)NC3CCCCC3)c(OCc3ccc(Cl)cc3)n2)C1` the IC50 was 7.7 µM.
`O=C(NC1C2CC3CC1CC(O)(C3)C2)c1ccc(N2C[C@@H]3[C@H](C2)[C@H]3C(=O)O)nc1OCc1ccccc1` (stereo partly specified) showed an IC50 of 27 µM.
With `CC(C)CCSc1nc(N2CCC[C@@H](CC(=O)O)C2)ccc1C(=O)NC1CCCCC1` the IC50 was 10 µM.
`CCC(C)COc1nc(N2CCC[C@@H](CC(=O)O)C2)ccc1C(=O)NC1CCCCC1` (stereo partly specified) gave an IC50 of 16 µM.
Compound `CC(C)CCOc1nc(N2C[C@@H]3[C@H](C2)[C@H]3C(=O)O)ccc1C(=O)N[C@@H](CO)c1ccccc1` has an IC50 of 5.6 µM.
For `CC(C)CCOc1nc(N2C[C@@H]3[C@H](C2)[C@H]3C(=O)O)ccc1C(=O)NC1CC2CCC1C2` (stereo partly specified), the IC50 was 14 µM.
`CC(C)CCOc1nc(N2C[C@@H]3[C@H](C2)[C@H]3C(=O)O)ccc1C(=O)Nc1ccc(CO)cc1` gave an IC50 of 5.6 µM.
In the case of `O=C(O)C[C@@H]1CCCN(c2ccc(C(=O)NC3CCCCC3)c(NCC3CCCCC3)n2)C1`, the IC50 is reported as > 50 µM.
`O=C(O)C[C@@H]1CCCN(c2ccc(C(=O)NC3CCCCC3)c(OCc3cccc(Cl)c3)n2)C1` was tested, and the IC50 was 9.9 µM.
`CC(C)(C)CCOc1nc(N2CCC[C@@H](CC(=O)O)C2)ccc1C(=O)NC1CCCCC1` showed an IC50 of 7.6 µM.
`CCC(C)Oc1nc(N2CCC[C@@H](CC(=O)O)C2)ccc1C(=O)NC1CCCCC1` (stereo partly specified) was tested, and the IC50 was > 50 µM.
Work on `CC(C)CCOc1nc(N2C[C@@H]3[C@H](C2)[C@H]3C(=O)O)ccc1C(=O)Nc1cccc(O)c1` yielded an IC50 of 2.9 µM.
Work on `O=C(O)C[C@@H]1CCCN(c2ccc(C(=O)NC3CCCCC3)c(OCCC3CC3)n2)C1` yielded an IC50 of 8 µM.
For `O=C(O)C[C@@H]1CCCN(c2ccc(C(=O)NC3CCCCC3)c(OC3CCCC3)n2)C1`, the IC50 was 12 µM.
Compound `O=C(O)C[C@@H]1CCCN(c2ccc(C(=O)NC3CCCCC3)c(SCc3ccccc3)n2)C1` has an IC50 of 39 µM.
Work on `O=C(O)C[C@@H]1CCCN(c2ccc(C(=O)NC3CCCCC3)c(OCCc3ccccc3)n2)C1` yielded an IC50 of 43 µM.
For `CCOc1nc(N2CCC[C@@H](CC(=O)O)C2)ccc1C(=O)NC1CCCCC1`, the IC50 was > 50 µM.
Compound `O=C(O)C[C@@H]1CCCN(c2ccc(C(=O)NC3C4CC5CC3CC(O)(C5)C4)c(OCc3ccccc3Cl)n2)C1` (stereo partly specified) has an IC50 of 2.3 µM.
Work on `C[C@H](Oc1nc(N2CCC[C@@H](CC(=O)O)C2)ccc1C(=O)NC1CCCCC1)c1ccccc1` yielded an IC50 of 11 µM.
`CC(C)CCOc1nc(Nc2cccc(C(=O)O)c2)ccc1C(=O)NC1C2CC3CC1CC(O)(C3)C2` (stereo unspecified) was tested, and the IC50 was 11 µM.
`CC(C)CCOc1nc(N2C[C@@H]3[C@H](C2)[C@H]3C(=O)O)ccc1C(=O)N[C@H](CO)c1ccccc1` showed an IC50 of 12 µM.
`O=C(O)C[C@@H]1CCCN(c2ccc(C(=O)NC3CCCCC3)c(OCCCC(F)(F)F)n2)C1` showed an IC50 of 15 µM.
`CC(C)CCOc1nc(N2C[C@@H]3[C@H](C2)[C@H]3C(=O)O)ccc1C(=O)NC[C@H](O)c1ccccc1` showed an IC50 of 3 µM.
For `COCCOc1nc(N2CCC[C@@H](CC(=O)O)C2)ccc1C(=O)NC1CCCCC1`, the IC50 was > 50 µM.
In the case of `CC(C)CCOc1nc(Nc2csc(C(=O)O)n2)ccc1C(=O)NC1C2CC3CC1CC(O)(C3)C2` (stereo unspecified), the IC50 is reported as 0.81 µM.
With `Cc1ccccc1COc1nc(N2C[C@@H]3[C@H](C2)[C@H]3C(=O)O)ccc1C(=O)NC1C2CC3CC1CC(O)(C3)C2` (stereo partly specified) the IC50 was 4.5 µM.
Compound `CC(C)CCOc1nc(N2CCC[C@@H](CC(=O)O)C2)ccc1C(=O)NC1CCCCC1` has an IC50 of 6.4 µM.
In the case of `C[C@@H](Oc1nc(N2CCC[C@@H](CC(=O)O)C2)ccc1C(=O)NC1CCCCC1)c1ccccc1`, the IC50 is reported as 5.9 µM.
For `O=C(NC1C2CC3CC1CC(O)(C3)C2)c1ccc(N2C[C@@H]3[C@H](C2)[C@H]3C(=O)O)nc1OCc1ccccc1Cl` (stereo partly specified), the IC50 was 3.2 µM.
`O=C(O)C[C@@H]1CCCN(c2ccc(C(=O)NC3CCCCC3)c(OCc3cccc(F)c3)n2)C1` was tested, and the IC50 was 10 µM.
For `Cc1ccccc1CNc1nc(N2CCC[C@@H](CC(=O)O)C2)ccc1C(=O)NC1CCCCC1`, the IC50 was > 50 µM.
`CC(C)CCOc1nc(N2C[C@@H]3[C@H](C2)[C@H]3C(=O)O)ccc1C(=O)Nc1cccc(NS(C)(=O)=O)c1` showed an IC50 of 5.4 µM.
Compound `Cc1ccccc1COc1nc(N2CCC[C@@H](CC(=O)O)C2)ccc1C(=O)NC1CCCCC1` has an IC50 of 4.5 µM.
Compound `CC(Oc1nc(N2CCC[C@@H](CC(=O)O)C2)ccc1C(=O)NC1CCCCC1)C1CC1` (stereo partly specified) has an IC50 of 20 µM.
